{"source": "patent US20220008449A1", "about": "“A METHOD OF MIMICKING BENEFITS OF DIETARY RESTRICTION BY TRANSIENTLY UPREGULATING ER STRESS RESPONSE” (NATIONAL INSTITUTE OF IMMUNOLOGY, priority 2018, published 2022)", "format_in_all_cases": "in vivo, Caenorhabditis elegans", "key": {"Phsp-4:gfp(zcIs4) worms": {"system": "Phsp-4:gfp(zcIs4) worms", "experiment": "Induced UPR^ER (iUPR^ER) efficiency, Phsp-4:gfp fluorescence after acute Tm challenge in adulthood", "details": "for iUPR^ER at adulthood after Tm hormesis: acute 5 mg/mL tunicamycin treatment, day 2 of adulthood", "method": "Transgenic Phsp-4:gfp(zcIs4) and eat-2(ad1116);Phsp-4:gfp(zcIs4) were bleached and eggs were hatched on control RNAi. Worms were allowed to grow till adulthood and then transferred onto plates overlaid with FuDR to a final concentration of 0.1 mg/ml. […] Since Tm is dissolved in 0.05% DMSO, it was used as vehicle control. After 6 hours, 50 worms from each treatment were mounted onto 2% agarose slides and visualized using Axio-Imager M2 epifluorescent microscope with a GFP filter set (Carl Zeiss, Germany) Fluorescence of ≥20 Tm-treated and untreated worms was quantified using NIH ImageJ software. Average fluorescence of treated worms was normalized to untreated worms and plotted as normalized GFP fold induction at different days of adulthood. Similar procedure was followed to compare iUPR^ER efficiency of Phsp-4:gfp(zcIs4) on control and drl-1 RNAi on different days of adulthood.\nEggs were left on rotation in this cocktail at a slow speed for 24 hrs. Following this, the hatched L1 larvae were washed 3-4 times with 1×M9 buffer to remove traces of tunicamycin and added onto seeded control RNAi or test RNAi plates containing no reagent. They were allowed to grow till adulthood when 100 worms belonging to each treatment regime were transferred onto FuDR containing RNAi plates and life span was scored as mentioned above. iUPR^ER efficiency was also measured on Day 2 of adulthood, as mentioned previously.\nSince it was observed that transient ER stress using Tm at early post-embryonic stage increased life span, it was tested whether this treatment could also lead to a better iUPR^ER efficiency with age. […] Importantly, hormetic up-regulation of the ER stress response during early developmental life leads to this increased ER efficiency contributing towards enhanced longevity during DR."}, "[1]": {"system": "Punc-54:polyQ40:yfp worms", "experiment": "PolyQ aggregate number in adult worms after transient Tm exposure", "source_text": "In order to evaluate the role of DR in augmenting the ERAD and its physiological consequences, a reporter was used that expresses a stretch of 40 glutamines (Q40) tagged with a yellow fluorescent protein in C. elegans muscle. This reporter strain was crossed with eat-2(ad1116) mutant worms to generate worms carrying both the reporter transgene and the eat-2 mutation (hereafter, referred to as eat-2;PolyQ). It was observed that incorporating eat-2 mutation led to 60-80% suppression in the number of aggregates at all age points, supporting the earlier observation of alleviation in the age-associated increase in PolyQ aggregation during DR (FIG. 6A). […] Since ire-1 was a requirement for DR-mediated longevity, it was tested whether this beneficial effect conferred under DR is also dependent on this gene.\nIt was reported that an atypical up-regulation of UPR^ER in larvae contributes towards increased life span during DR. It was shown that pharmaceutically mimicking the transient UPR^ER up-regulation during early larval life augmented the iUPR^ER efficiency with age and increased life span. To determine whether such hormetic intervention can protect against the age-related proteostasis collapse, WT worms were exposed with a range of concentrations of Tm only during the start of larval development, as mentioned before. […]"}, "C. elegans": {"system": "C. elegans", "experiment": "Adult life span after transient (first 24 h) Tm or 2DG supplementation", "method": "Gravid adult worms, initially grown on E. coli OP50 were bleached and eggs were hatched on different RNAi plates. On reaching adulthood, 50-60 young adult worms were transferred to the similar RNAi plates in triplicates and overlaid with Fluoro-deoxyuridine (FudR) to final concentration of 0.1 mg/ml of agar (2). At the 7th Day of adulthood, sick, sluggish and slow dwelling worms were removed from the life span population and the remaining were considered as the number of subjects ‘N’. Following this, number of dead worms were scored every alternate day and plotted as % survival against the number of days. Statistical analysis for survival was conducted using Mantel-Cox Log Rank test using Oasis software. Average life span was also determined using the same method and represented as Mean life span±Standard Error Mean (S.E.M).\nOvernight grown bacterial culture expressing Control or test RNAi were re-inoculated in 200 ml fresh LB media and grown at 37° C. until OD600 reached 0.5-0.6. The culture was divided in two parts (A and B) in a ratio of 1:3 and cells are pelleted separately using a centrifuge (4810R, Eppendorf, Germany) at 5000 r.p.m for 10 minutes at 4° C. Pellet from part B (150 ml) of the culture was resuspended in 1×M9 buffer containing 100 μg/ml ampicillin and 1 mM IPTG to 1/10th of its initial culture volume (for 150 ml culture, 15 ml of resuspension buffer was used) and 350 μl was seeded onto each RNAi plate and left for drying at room temperature for 24 hours.\nGravid adult worms initially grown on E. coli OP50 bacteria were bleached and eggs were re-suspended in 100-200 ul of 1×M9 buffer and standardized for the number of eggs present in a particular volume.\nEntire composition of cocktail (total volume 1 ml) is mentioned as follows:\nEggs were left on rotation in this cocktail at a slow speed for 24 hrs. […] They were allowed to grow till adulthood when 100 worms belonging to each treatment regime were transferred onto FuDR containing RNAi plates and life span was scored as mentioned above. iUPR^ER efficiency was also measured on Day 2 of adulthood, as mentioned previously.\nSince transient up-regulation of UPR^ER was observed, experiments were conducted to see its causal role in life span extension, as observed during DR. […] After the pharmaceutical reagent was washed off, the worms were grown on solid NGM media and post-adult life span was recorded. […] This observation supports the role of hormesis, triggered by an early ER stress as a mechanism of DR-mediated life span enhancement, in the models that were tested."}}, "note": "“Also recorded” adds a separate entry of the source."}
{"compound": "Tunicamycin [Tm]", "values": [{"measurement": "iUPR^ER at adulthood after Tm hormesis", "setting": "Phsp-4:gfp(zcIs4) worms; control RNAi worms", "result": "even higher iUPR^ER"}, {"measurement": "iUPR^ER at adulthood after Tm hormesis", "setting": "Phsp-4:gfp(zcIs4) worms; pha-4 RNAi worms", "result": "not able to increase the iUPR^ER response"}, {"measurement": "iUPR^ER efficiency at day 2 of adulthood", "setting": "Phsp-4:gfp(zcIs4) worms; transient Tm 24 hours post-bleaching, challenge Tm 10 μg/ml for 6 hours on day 2", "result": "increases iUPR^ER efficiency; also recorded: higher iUPR^ER efficiency"}, {"measurement": "Number of polyQ aggregates", "setting": "[1]; Punc-54:polyQ40:yfp on control RNAi, 0.125 μg/ml and 0.25 μg/ml Tm during larval development, day 2 and day 3 of adulthood", "result": "suppression; also recorded: significant reduction in the number of aggregates"}, {"measurement": "Number of polyQ puncta", "setting": "[1]; ire-1(v33);Q40:yfp worms treated with hormetic dose of Tm (0.125 μg/ml)", "result": "significantly higher puncta at all age points"}, {"measurement": "Effect on life span", "setting": "C. elegans; WT larvae, 0.125 μg/ml Tm during first 24 hours", "result": "sufficient to extend lifespan; also recorded: significant extension of life span"}, {"measurement": "Dependence of Tm hormesis life span extension on PHA-4", "setting": "C. elegans; WT on control or pha-4 RNAi, Tm 0.125 μg/mL initial 24 h", "result": "suppressed; also recorded: dependent on PHA-4"}, {"measurement": "Dependence of Tm life span effect on ire-1", "setting": "C. elegans; WT vs ire-1(v33), Tm 0.125 μg/ml initial 24 hours", "result": "completely dependent on ire-1"}, {"measurement": "Life span Mean ± SEM", "setting": "C. elegans; Wild type (for eat-2 hormesis expt), Tm 0.125 μg/ml for first 24 hours", "result": "21.58 ± 0.36", "unit": "days"}, {"measurement": "Life span % Change", "setting": "C. elegans; Wild type (for eat-2 hormesis expt), Tm 0.125 vs 0 μg/ml", "result": 15.83, "unit": "%"}, {"measurement": "Life span Mean ± SEM", "setting": "C. elegans; Wild type (for ire-1 hormesis expt), Tm 0.125 μg/ml for first 24 hours", "result": "22.02 ± 0.30", "unit": "days"}, {"measurement": "Life span % Change", "setting": "C. elegans; Wild type (for ire-1 hormesis expt), Tm 0.125 vs 0 μg/ml", "result": 18.83, "unit": "%"}, {"measurement": "Life span Mean ± SEM", "setting": "C. elegans; Wild type, Tm 0.125 μg/ml for first 24 hours", "result": "21.73 ± 0.28", "unit": "days"}, {"measurement": "Life span % Change", "setting": "C. elegans; Wild type, Tm 0.125 vs 0 μg/ml", "result": 17.78, "unit": "%"}, {"measurement": "Life span Mean ± SEM", "setting": "C. elegans; eat-2 (ad1116), Tm 0.125 μg/ml for first 24 hours", "result": "25.32 ± 0.45", "unit": "days"}, {"measurement": "Life span % Change", "setting": "C. elegans; eat-2 (ad1116), Tm 0.125 vs 0 μg/ml", "result": "−10.47", "unit": "%"}, {"measurement": "Effect on life span", "setting": "C. elegans; eat-2(ad1116), Tm supplementation", "result": "cannot further increase lifespan"}, {"measurement": "Life span Mean ± SEM", "setting": "C. elegans; ire-1(v33), Tm 0.125 μg/ml for first 24 hours", "result": "18.64 ± 0.21", "unit": "days"}, {"measurement": "Life span % Change", "setting": "C. elegans; ire-1(v33), Tm 0.125 vs 0 μg/ml", "result": "−0.85", "unit": "%"}]}
{"compound": "O=CC[C@@H](O)[C@H](O)[C@H](O)CO", "note": "[2-DG, 2-deoxy glucose]", "values": [{"measurement": "Effect on life span", "setting": "C. elegans; WT, transient 2DG 0.0625 mM first 24 hours", "result": "increased; also recorded: significantly increasing life span"}, {"measurement": "Life span Mean ± SEM", "setting": "C. elegans; Wild type, 2-DG 0.0625 mM for first 24 hours", "result": "21.21 ± 0.37", "unit": "days"}, {"measurement": "Life span % Change", "setting": "C. elegans; Wild type, 2-DG 0.0625 vs 0 mM", "result": 11.69, "unit": "%"}, {"measurement": "Life span Mean ± SEM", "setting": "C. elegans; ire-1(v33), 2-DG 0.0625 mM for first 24 hours", "result": "20.07 ± 0.26", "unit": "days"}, {"measurement": "Life span % Change", "setting": "C. elegans; ire-1(v33), 2-DG 0.0625 vs 0 mM", "result": "−0.64", "unit": "%"}, {"measurement": "Effect on life span", "setting": "C. elegans; ire-1(v33), transient 2DG treatment", "result": "failed to increase life span; also recorded: ire-1-dependent manner"}]}
